This is an account of results in the SangsterLogP compilation.

In turn, `Cn1cnc([N+](=O)[O-])c1Sc1nc(=O)[nH]c2ncn(C)c12` registered a log partition coefficient (logP) of 1.12.
The same measure for `Cn1cnc([N+](=O)[O-])c1Sc1nc(Cl)nc2ncn(C)c12`: 1.5; for `Cn1cnc([N+](=O)[O-])c1Sc1nc(=S)[nH]c2ncn(C)c12`: 1.19; for `Cn1cnc([N+](=O)[O-])c1Sc1nc(Sc2c([N+](=O)[O-])ncn2C)c2c(ncn2C)n1`: 1.68.
The compound `CN1C=NC([N+](=O)[O-])C1Sc1nc2ncn(C)c2c(=O)[nH]1` (configuration not stated) yielded a log partition coefficient (logP) of 1.21.
The result for `C=CCSc1nc(Sc2c([N+](=O)[O-])ncn2C)c2c(ncn2C)n1` reads 2.43; that for `Cn1cnc([N+](=O)[O-])c1Sc1nc(OCc2ccccc2)nc2ncn(C)c12`, 2.67; that for `CSc1nc(Sc2c([N+](=O)[O-])ncn2C)c2c(ncn2C)n1`, 1.6.
The result for `C=CCOc1nc(Sc2c([N+](=O)[O-])ncn2C)c2c(ncn2C)n1` reads 2.02.
The same measure for `Cn1cnc([N+](=O)[O-])c1Sc1nc(SCc2ccccc2)nc2ncn(C)c12`: 2.91; for `Cn1cnc([N+](=O)[O-])c1Sc1nc2ncn(C)c2c(=S)[nH]1`: 1.26.
`COc1nc(Sc2c([N+](=O)[O-])ncn2C)c2c(ncn2C)n1` showed a lipophilicity (logP) of 1.45. This logP and that of the compound before are within 0.2 log units of each other.
